Broadly, the EC50 is the concentration that produces a half-maximal response.

The values that follow come from patent US8846914B2, “Compositions to effect neuronal growth” (Neuralstem, Inc., priority 2003, dated 2014).

Common to all, as to type: cell-based
Experiment [1] deals with human hippocampal stem cells. In words: Neurogenesis, TuJ1 immunostaining / Hoechst (primary screen). Particulars: seven days of compound treatment; for Neuron Number (% of Control): TuJ1+ neurons per area; for Neuron Ratio (% of Control): ratio neuron:total cells (TuJ1/Hoechst). The source says: FIG. 2 is a bar graph illustrating an example of a neurogenesis profile of compounds selected from primary screening. After seven days of compound treatment, the cells were stained with the neuron-specific anti-tubulin IIIb antibody. TuJ1, for neurons and Hoechst for all cell nuclei. Shown are the relative ratio of neuron: total cells for each compound over the vehicle control in percentage. Typical ratio for vehicle control is 40-50% neurons. The ratio can change by either increased differentiation of stem cells to neurons, decreased proliferation of astrocytes, or increased proliferation of neuronal progenitors.
FIG. 3 is a bar graph illustrating an example of a neurogenesis profile of compounds selected from primary screening. After seven days of compound treatment, the cells were stained with TuJ1 for neurons. The number of TuJ1+ neurons per area was quantified and expressed as a relative value to the vehicle treated control.
The final neuron number is detected by immunostaining of the culture with antibodies against neurons and is quantified by counting of the immunopositive neurons and/or by measuring the staining intensity. Therefore, after seven days of compound treatment, the cells are stained with the neuron-specific anti-tubulin IIIb antibody, TuJ1, for neurons and Hoechst for all cell nuclei. The number of TuJ1+ neurons per area is quantified and expressed as a value relative to the vehicle-treated control of Hoechst-stained cells. In this regard, the medium is removed from the wells by decanting and blotting the plates on paper towels. The cells are then fixed in 100 μl of 4% paraformaldehyde per well for thirty minutes at room temperature. The cells are washed three times with 400 μl per well of phosphate-buffered saline (PBS) at pH 7.5 for approximately ten minutes per wash. The plates are then stored at 4° C. in PBS or used immediately for staining.
The cells are subsequently stained with antibodies against neuron-specific antigens according to standard procedures. The staining process includes decanting the PBS and blocking the cells with 100 μl of 5% Normal Goat Serum (NGS) in PBS for one hour at room temperature. The NGS/PBS is decanted and the plates are blotted on a paper towel. The cells are then permeabilized with 0.1% Triton X-100 in PBS for 30 minutes at room temperature.
Typical neuron-specific antigens include Type III-beta tubulin and MAP-2c. The total cell number in each well was quantified by staining the cultures with a nuclear dye such as DAPI or Hoechst according to standard procedures. Therefore, once the cells are permeabilized, 20 μl of TuJ1, monoclonal antibody against neuronal class 111 β-tubulin (CoVance (BabCo) MMS-435P) and 32 μl of anti-GFAP polyclonal (DAKO Z0334) are added to and mixed of PBS with 5% NGS. Final dilutions of TuJ1 and anti-GFAP are 1:400 and 1:250, respectively. 90 μl of the antibody solution is added to each well except two eleventh column. 90 μl of PBS/5% NGS is added to the eleventh column and no cells are added to the twelfth column. The plate(s) are sealed with parafilm and incubated at 4° C. overnight.
After incubating the cells overnight, the antibody solution is decanted and 200 μl of PBS/0.1% Triton X-100 is added to the wells. The plate(s) are placed on a shaker and incubated at room temperature with gentle shaking for ten minutes. The cells are again washed with the PBS/Triton X-100 solution another two times.
Following staining with TuJ1 and anti-GFAP, 20 μl of Alexa Fluor 488 labeled goat anti-moose IgG (H+L) (Molecular Probes A-11001) and 100 μl of LRSC-IgG, goat anti-rabbit (Jackson Immune 111-295-144) is added and mixed with 10 ml of PBS/5% NGS. 100 μl of the resulting antibody solution is added to each well. The plate(s) are covered with foil and incubated with gentle shaking for up to one hour at room temperature. The cells are again washed as described above with PBS and an Triton X-100. […]

The subject of experiment [2] is Differentiating hippocampal human stem cells. As to the kind of experiment: Long-term treatment in vitro neurogenesis. Conditions: Homo sapiens, 504 h, three weeks, 5× with 10 μM, compared to the control. On the procedure:
FIG. 11 is a bar graph illustrating an example of in vitro neurogenesis profile of the compounds for a long-term treatment. Differentiating hippocampal human stem cells mere treated with vehicle alone or with the test compounds for three weeks. Increase in cell number was determined compared to the control. Shown are several examples that are effective in continued neurogenesis. Bars represent mean+/−SD from six wells.
In another in vitro assay, compounds of the fused imidazole, iminopyrimidine, nicotinamide, aminomethyl phenoxypiperidine and aryloxypiperidine types are evaluated for their effect on the differentiation of the culture-born cells to mature neurons. More particularly, multipotent human hippocampal stem cells are treated in three doses over a one-week period in N2b media and in the presence of an agent of the type mentioned above. The cells are then fed twice weekly for approximately two more weeks in N2b or Neuralbasal+B27 Media (Gibco) and then cells are fixed using 4% paraformaldehyde. Cells are washed 3× with PBS (pH 7.4) and then stained using a nuclear stain (Hoechst or DAPI) and a mature neuronal marker, MAP-2ab (AP-20) antibody. A secondary antibody, Alexa Fluor 488 labeled goat anti-mouse IgG, is used to identify by fluorescent labeling the mature neurons. The fluorescent intensity and number of cells labeled in a multi-plate format can be measured using for instance a Array Scan II (Cellomics) or similar instrumentation.
Effects of the long-term NSI compound treatment on human hippocampal stem cells in the absence of mitogen is illustrated in FIG. 11. In FIG. 11, differentiating hippocampal human stem cells are treated with vehicle alone or with the test compounds for three weeks. Increase in cell number was determined compared to the control. Bars represent mean+/−SD from six wells. […] Several examples of NSI compounds are shown to be effective in continued neurogenesis. […] These agents comprise a class of compounds, aminopyrimidines, that, as shown previously, inhibited apoptosis. Accordingly, the aminopyrimidine class of compounds appear ideally suited for neurodegenerative long-term diseases including Alzheimer's disease and aging. Neurogenic agents that are neuroprotective like the sixteen compounds identified above might also be effective therapeutics for other neurodegenerative diseases in mammals including, but not limited to, stroke, traumatic brain injury, Parkinson's disease, and mild cognitive impairment.

For experiment [3], the system named is Differentiating human hippocampal stem cells. In words: Neurogenesis dose-response profile. Conditions: Homo sapiens, Neuron, 168 h; for activity at 0.3 µM: @300 nM; for EC50: seven days, 100 pM to 100 μM; for activity at 30 µM: @30000 nM; for activity at 3 µM: @3000 nM. The method, then:
FIG. 4 is a line graph illustrating an example of a neurogenesis dose-response profile of selected compounds. Differentiating human hippocampal stem cells were treated for seven days with varying concentrations of “primary hits”. Subsequently, the cells were fixed, stained with anti-beta tubulin antibody, and positive cells were quantified by Array Scan II. Shown are the number of neurons after each treatment normalized against the no-compound control.
In another in vitro assay, compounds are tested as above at varying concentrations to obtain a dose-response curve and EC50 values (effective concentration of the compound which produces 50% of the maximum possible response for that compound).
Primary dose-response profiles and secondary functional assays are used to further eliminate compounds from the primary screen based on a lack of dose-dependent effect on neurogenesis, indicated by lack of linearity of dose-response, and in vitro neurotoxicity. The dose-response curve measures neurogenesis over a concentration range of 100 pM to 100 μM. […] Table II contains the summary of EC50 of each compound tested.

Setting [4] is: read-out: Long Term Treatment #Neur.
The mark [5] stands for this setting: read-out: Long Term Treatment Neur Ratio.
[6] abbreviates: read-out: Long Term Treatment Prolif.
Where [7] appears, read: normalized against no-compound control, read-out: Neuron# Eff.

SMILES strings stand for the structures. Like-named read-outs stand apart in the source and are kept apart here.

With `O=C(NCc1nc2ccccn2c1NCC1CCCO1)Oc1ccccc1` (centres unmarked) [NSI-182], the “Neuron Number (% of Control)” value in experiment [1] is listed as 95 ± 9 % of Control. In experiment [1], the “Neuron Ratio (% of Control)” value is 125 ± 10 % of Control. The activity at 10 µM in experiment [2] (setting [4]) is 121 ± 13%; in experiment [2] (setting [5]), 111 ± 13%; in experiment [2] (setting [6]), 95 ± 6%; in experiment [3] (@10000 nM, read-out: % Neuron Ratio Eff), 112%. Also, the activity at 0.3 µM in experiment [3] (setting [7]) amounted to 123%. Moreover, in experiment [3], the EC50 is 0.1 nM.
For `CC(C)CCNc1ncccc1C(=O)N1CCN(Cc2ccccc2)CC1` [NSI-189], the “Neuron Number (% of Control)” value in experiment [1] is 102 ± 41 % of Control. Also, the “Neuron Ratio (% of Control)” value in experiment [1] is 130 ± 19 % of Control. Also, the activity at 10 µM in experiment [2] (setting [4]) turned out to be 110 ± 26%; in experiment [2] (setting [5]), 96 ± 19%; in experiment [2] (setting [6]), 144 ± 17%. Moreover, the activity at 30 µM in experiment [3] (setting [7]) is 165%; in experiment [3] (read-out: % Neuron Ratio Eff) it was 141%. Further, a half-maximal effect in experiment [3] (EC50) was put at 253 nM.
On to `C=CCNC(=O)c1cccnc1NCc1ccccc1OC` [NSI-150], for which the “Neuron Number (% of Control)” value in experiment [1] is 107 ± 29 % of Control. In experiment [1], the “Neuron Ratio (% of Control)” value is 99 ± 6 % of Control. The activity at 10 µM in experiment [2] (setting [4]) turned out to be 120 ± 10%; in experiment [2] (setting [5]), 105 ± 7%; in experiment [2] (setting [6]) it was 110 ± 25%. In experiment [3] (setting [7]), the activity at 3 µM amounted to 227%. Besides, the activity at 30 µM in experiment [3] (read-out: % Neuron Ratio Eff) was 112%. Also, a half-maximal effect in experiment [3] (EC50) was put at 85 nM.
With `CS(=O)(=O)N1CCCCC1C(=O)NCc1ccc(Nc2c(C3CC3)nc3ccccn23)cc1` (centres unmarked) [NSI-127], the “Neuron Number (% of Control)” value in experiment [1] is listed as 81 ± 13 % of Control. Besides, the “Neuron Ratio (% of Control)” value in experiment [1] is recorded as 104 ± 8 % of Control. Also, the figures for the activity at 10 µM in experiment [2] (setting [4]), in experiment [2] (setting [5]) and in experiment [2] (setting [6]) were 135 ± 21%, 131 ± 15% and 103 ± 8%, respectively. The activity at 0.01 µM in experiment [3] (@10 nM, read-out: % Neuron Ratio Eff) came out at 114%. In addition, the activity at 30 µM in experiment [3] (setting [7]) stood at 137%. Moreover, the midpoint of the response in experiment [3], the EC50, lay at 1.5 nM.
As for `NC(=O)C1CCCN1C(=O)c1cccnc1NCC1CCCCC1` (centres unmarked) [NSI-158], the “Neuron Number (% of Control)” value in experiment [1] was 93 ± 17 % of Control. The “Neuron Ratio (% of Control)” value in experiment [1] was 106 ± 9 % of Control. Also, the activity at 10 µM in experiment [2] (setting [4]) was 141 ± 24%; in experiment [2] (setting [5]) it was 114 ± 14%; in experiment [2] (setting [6]) it was 99 ± 6%. In addition, the activity at 0.3 µM in experiment [3] (setting [7]) was 145%. Also, in experiment [3] (read-out: % Neuron Ratio Eff), the activity at 3 µM was determined as 106%. The same compound yielded an EC50 in experiment [3] of 0.2 nM.
For the compound `CCCCNc1c(C2CCN(C(=O)CN(CC(C)C)S(C)(=O)=O)CC2)nc2cnccn12` [NSI-106], in experiment [1], the “Neuron Number (% of Control)” value was 77 ± 12 % of Control. Also, the “Neuron Ratio (% of Control)” value in experiment [1] was 92 ± 6 % of Control. Further, the activity at 10 µM came out at 137 ± 8% in experiment [2] (setting [4]), 120 ± 5% in experiment [2] (setting [5]) and 92 ± 3% in experiment [2] (setting [6]). The activity at 0.1 µM in experiment [3] (@100 nM, read-out: % Neuron Ratio Eff) was 165%. In addition, the activity at 0.3 µM in experiment [3] (setting [7]) is 157%. Further, the midpoint of the response in experiment [3], the EC50, lay at 0.07 nM.
Consider `CCN(CCNC(=O)c1cccnc1NCCC(C)C)Cc1cccnc1` [NSI-190], for which the “Neuron Number (% of Control)” value in experiment [1] was 130 ± 22 % of Control. In experiment [1], the “Neuron Ratio (% of Control)” value is on record as 127 ± 9 % of Control. Moreover, the activity at 10 µM in experiment [2] (setting [4]) was 121 ± 19%; in experiment [2] (setting [5]), 100 ± 12%; in experiment [2] (setting [6]), 98 ± 11%. Moreover, in experiment [3] (@1 nM, read-out: % Neuron Ratio Eff), the activity at 0.001 µM was found to be 128%. Further, in experiment [3] (setting [7]), the activity at 0.3 µM was 165%. For the same compound, in experiment [3], a half-maximal response (EC50) required 13 nM.
